pIC50: −log10 of the molar value. ≈ marks a conversion by molar mass, not a printed value.
What was measured:
[1] = Cytotoxicity against human GSC-3 cells assessed as reduction in cell viability incubated for 72 hrs by MTS assay; type: functional, cell-based; conditions: GSC-3, 72 h
[2] = system: U-87 MG; experiment: Growth inhibition of human U-87 MG cells measured after 72 hrs by MTT assay; type: functional, U-87MG ATCC
[3] = Growth inhibition of human U373 MG cells measured after 72 hrs by MTT assay; type: functional, U-373MG ATCC
[4] = system: Hs68; experiment: Growth inhibition of human Hs68 cells measured after 72 hrs by MTT assay; type: functional
[5] = Cytotoxicity against human CHG-5 cells assessed as reduction in cell viability incubated for 48 hrs by MTT assay; type: functional, cell-based; conditions: CHG-5, 48 h
[6] = Cytotoxicity against human SHG-44 cells assessed as reduction in cell viability incubated for 48 hrs by MTT assay; type: functional, cell-based; conditions: SHG-44, 48 h
[7] = system: CCF-STTG1; experiment: Cytotoxicity against human CCF-STTG1 cells assessed as reduction in cell viability incubated for 48 hrs by MTT assay; type: functional, cell-based; conditions: CCF-STTG1, 48 h
[8] = system: U-251; experiment: Cytotoxicity against human U-251MG cells assessed as reduction in cell viability incubated for 48 hrs by MTT assay; type: functional, cell-based; conditions: U-251, 48 h
[9] = system: SF-268; experiment: Cytotoxicity against human SF-268 cells assessed as reduction in cell viability incubated for 72 hrs by SRB assay; type: functional, cell-based; conditions: SF-268, 72 h
[10] = system: SF-295; experiment: Cytotoxicity against human SF-295 cells assessed as reduction in cell growth incubated for 96 hrs by MTT assay; type: functional, cell-based; conditions: SF-295, 96 h
[11] = system: SH-SY5Y; experiment: Cytotoxicity against human SH-SY5Y cells; type: functional, cell-based
[12] = system: SH-SY5Y; experiment: Cytotoxicity against human SH-SY5Y cells assessed as reduction in cell growth incubated for 48 hrs by MTT assay; type: functional, cell-based
[13] = Cytotoxicity against human U-343MG cells assessed as reduction in cell growth incubated for 48 hrs by MTT assay; type: functional, cell-based
[14] = system: U-251; experiment: Cytotoxicity against human U-251MG cells assessed as reduction in cell growth incubated for 48 hrs by MTT assay; type: functional, cell-based; conditions: U-251, 48 h
[15] = Cytotoxicity against human SHG-44 cells assessed as reduction in cell growth incubated for 48 hrs by MTT assay; type: functional, cell-based; conditions: SHG-44, 48 h
[16] = Cytotoxicity against human CHG-5 cells assessed as reduction in cell growth incubated for 48 hrs by MTT assay; type: functional, cell-based; conditions: CHG-5, 48 h
[17] = Cytotoxicity against human GL15 cells assessed as reduction in cell growth incubated for 48 hrs by MTT assay; type: functional, cell-based; conditions: GL15, 48 h
[18] = system: U-87 MG; experiment: Antiproliferative activity against human U-87 MG cells assessed as reduction in cell viability at 100 uM incubated for 72 hrs by Prestoblue-reagent based assay relative to control; type: functional, U-87MG ATCC
[19] = Cytotoxicity against human CHG-5 cells assessed as reduction in cell growth incubated for 24 hrs by MTT assay; type: functional, cell-based; conditions: CHG-5, 24 h
[20] = Cytotoxicity against human SHG-44 cells assessed as reduction in cell growth incubated for 24 hrs by MTT assay; type: functional, cell-based; conditions: SHG-44, 24 h
[21] = system: CCF-STTG1; experiment: Cytotoxicity against human CCF-STTG1 cells assessed as reduction in cell growth incubated for 24 hrs by MTT assay; type: functional, cell-based; conditions: CCF-STTG1, 24 h
[22] = Cytotoxicity against human CHG-5 cells assessed as reduction in cell viability incubated for 24 hrs by MTT assay; type: functional, cell-based; conditions: CHG-5, 24 h
[23] = Cytotoxicity against human SHG-44 cells assessed as reduction in cell viability incubated for 24 hrs by MTT assay; type: functional, cell-based; conditions: SHG-44, 24 h
[24] = system: CCF-STTG1; experiment: Cytotoxicity against human CCF-STTG1 cells assessed as reduction in cell viability incubated for 24 hrs by MTT assay; type: functional, cell-based; conditions: CCF-STTG1, 24 h
[25] = system: U-251; experiment: Cytotoxicity against human U-251MG cells assessed as reduction in cell viability incubated for 24 hrs by MTT assay; type: functional, cell-based; conditions: U-251, 24 h
[26] = Toxicity in ip dosed B6D2F1 mouse assessed as maximum tolerated dose measured after 28 days; type: organism-based; conditions: in vivo, time 28 day
[27] = system: SW1088; experiment: Cytotoxicity against human SW1088 cells assessed as reduction in cell growth incubated for 24 hrs by MTT colorimetric assay; type: functional, cell-based; conditions: SW1088, 24 h
[28] = Cytotoxicity against human U373 MG cells assessed as reduction in cell growth incubated for 24 hrs by MTT colorimetric assay; type: functional, cell-based, U-373MG ATCC
[29] = system: GAMG; experiment: Antiproliferative activity against human GAMG cells assessed as reduction in cell viability incubated for 48 hrs by MTS reagent based assay; type: functional
[30] = Cytotoxicity against rat ASK cells assessed as reduction in cell growth by SRB assay; type: functional; conditions: read-out: ED50 (the source's name)
[31] = system: H4; experiment: Antiproliferative activity against human H4 cells assessed as reduction in cell viability incubated for 72 hrs by Prestoblue-reagent based assay; type: functional; conditions: H4, 72 h

SMILES: COc1cc2c(c(Oc3ccc(CO)cc3)c1OC)C[C@H]1c3c(cc(OC)c(OC)c3-2)CCN1C
- IC50 [1]: 15.2 mg/L (≈ 31.9 µM)

SMILES: CO[C@@H]1C=C[C@@]23c4cc5c(cc4C(C)O[C@H]2CN(C)[C@H]3C1)OCO5 (some centres not stated)
- GI50 [2]: 28 µM
- GI50 [3]: 1 µM
- GI50 [4]: 51 µM

SMILES: CC(=O)O[C@H]1C=C[C@]23c4cc5c(cc4[C@H](OC(C)=O)N(C[C@H]2O)[C@@H]3C1)OCO5
- pIC50 [5]: 4.52
- pIC50 [6]: 4.57
- pIC50 [7]: 4.57
- pIC50 [8]: 4.76

SMILES: C/C=C(\C)[C@H](O)[C@H](C)/C=C(C)/C=C(\C)C/C(C)=C/Cc1nc(OC)c(OC)c(OC)c1C
- pIC50 [9]: 5.00

SMILES: COc1cc2c(cc1OC)[C@H](O)[C@@H]1c3c(cc4c(c3-2)OCO4)CC[N@@+]1(C)[O-]
- IC50 [10]: 1.62 mg/L (≈ 4.36 µM)

SMILES: COc1cc2c(cc1O)[C@H](OC(C)=O)N1C[C@@H](O)[C@]23C=C[C@H](OC)C[C@@H]13
- pIC50 [5]: 4.53
- pIC50 [6]: 4.57
- pIC50 [7]: 4.53
- pIC50 [8]: 4.76

SMILES: N#Cc1cnc2cccc(O)c2c1O
- pIC50 [11]: 4.20

SMILES: COc1cc2c(c(Oc3ccc(C=O)cc3)c1OC)-c1c(OC)c(OC)cc3ccnc(c13)C2=O
- IC50 [1]: 15.5 mg/L (≈ 32.8 µM)

SMILES: CN1C(=O)C(=O)NC[C@@H]1CNc1ccc(C(=O)O)cc1
- pIC50 [11]: 4.26

SMILES: CN[C@H]1C[C@H](OC)C=C[C@@]12C(=O)N(CCCC(=O)O)Cc1cc3c(cc12)OCO3
- pIC50 [12]: 4.86
- pIC50 [13]: 4.91
- pIC50 [14]: 4.95
- pIC50 [15]: 4.97
- pIC50 [16]: 4.91
- pIC50 [17]: 4.94

SMILES: COc1ccc2c3c([nH]c2c1)[C@@H](C)NCC3
- inhibition at 100 µM [18]: 38%

SMILES: COc1ccc2c(c1OC)-c1c(OC)c(O)cc3c1[C@H](C2)[N@+](C)([O-])CC3
- pIC50 [19]: 4.08
- pIC50 [20]: 4.08
- pIC50 [21]: 4.09

SMILES: CO[C@H]1C=C[C@]23c4cc5c(cc4[C@H](OC(C)=O)N(C[C@H]2O)[C@@H]3C1)OCO5
- pIC50 [5]: 4.52
- pIC50 [6]: 4.55
- pIC50 [7]: 4.57
- pIC50 [8]: 4.80

SMILES: CC(=O)O[C@@H]1C2C3C[C@H]4C5=Nc6ccccc6[C@]51C[C@@H]2[N+]4([O-])[C@@H](C)[C@@H]3C(=O)O (some centres not stated)
- pIC50 [22]: 4.92
- pIC50 [23]: 5.04
- pIC50 [24]: 4.94
- pIC50 [25]: 5.01

SMILES: CO[C@@H]1C=C[C@@]23c4cc5c(cc4CN(CCc4ccccc4)[C@@H]2CN(C)[C@H]3C1)OCO5
- pIC50 [12]: 4.80
- pIC50 [13]: 4.84
- pIC50 [14]: 4.74
- pIC50 [15]: 4.81
- pIC50 [16]: 4.75
- pIC50 [17]: 4.72

SMILES: [O-][N+]12CCc3cc(O)c(O)c(c31)-c1cc3c(cc1C2)OCO3 (single isomer, unassigned; (+))
- pIC50 [8]: 4.03

SMILES: O=C1c2cccnc2-c2nccc3c2c1nc1ccccc13 [ASCIDIDEMIN]
- MTD at 672 h [26]: 40 mg/kg
- pIC50 [27]: 6.22
- pIC50 [28]: 6.30

SMILES: O=P1(N(CCCl)CCCl)NCCCO1 (configuration not stated) [CYCLOPHOSPHAMIDE ANHYDROUS]
- pIC50 [29]: 4.29

SMILES: COc1cc2c(cc1OC)-c1c3c(cc4ccnc(c14)C2=O)OCO3 [DICENTRINONE]
- EC50 [30]: 10.2 mg/L (≈ 30.4 µM)

SMILES: COc1ccc2c3c([nH]c2c1)C(C)=NCC3 [HARMALINE]
- pIC50 [31]: 4.71
- inhibition at 100 µM [18]: 14%

SMILES: CC1=NCCc2c1[nH]c1cc(O)ccc21 [HARMALOL]
- pIC50 [31]: 4.63
- inhibition at 100 µM [18]: 37%

SMILES: Cc1cc2nc3[nH]c(=O)[nH]c(=O)c3nc2cc1C [LUMICHROME]
- pIC50 [11]: 4.12

SMILES: c1ccc2c(c1)[nH]c1cnccc12 [NORHARMANE]
- pIC50 [31]: 4.31

SMILES: COc1cc(OC)c2c(c1)C(=O)c1nccc3cc4c(c-2c13)OCO4 [OXODISCOGUATTINE]
- EC50 [30]: 2.11 mg/L (≈ 6.29 µM)

SMILES: C/C=C(\C)[C@H](O)[C@H](C)/C=C(C)/C=C/C/C(C)=C/Cc1nc(OC)c(OC)c(O)c1C [PIERICIDIN A]
- pIC50 [9]: 4.17

SMILES: COc1c(OC)c(OC)c2c3c(cc4ccccc42)NC(=O)c13 [PIPEROLACTAM C]
- EC50 [30]: 12.8 mg/L (≈ 41.3 µM)

SMILES: CC[C@]1(O)C[C@H]2CN(CCc3c([nH]c4ccccc34)[C@@](C(=O)OC)(c3cc4c(cc3OC)N(C=O)[C@H]3[C@@](O)(C(=O)OC)[C@H](OC(C)=O)[C@]5(CC)C=CCN6CC[C@]43[C@@H]65)C2)C1 [VINCRISTINE]
- pIC50 [29]: 4.52
